{"source": "patent US7723564B2", "about": "“Compositions and methods for modulation of KSR1 and KSR2 interactions” (Board of Regents of the University of Nebraska, priority 2006, dated 2010)", "key": {"[1]": {"test_system": "AMPK-KSR2 interaction", "experiment": "Coimmunoprecipitation of AMPK with KSR2", "assay_type": "cell-based", "conditions": "AMPK expressed in cells with KSR2; FIG. 22", "text": "(§1) FIG. 22. is a series of western blots showing that AMPK coimmunopreciptates with KSR1 and KSR2.\n(§2) AMP activated protein kinase (AMPK) is a critical regulator of catabolism in cells, promoting the synthesis of ATP and inhibiting the anabolic effects of other hormones to promote […]. AMPK is an indirect target of the widely prescribed anti-diabetic drug metformin. […] When AMPK is expressed in cells with either KSR or KSR2, AMPK is found to precipitate with either protein. AMPK is not precipitated in the absence of KSR proteins."}, "[2]": {"test_system": "AMPK-KSR1 interaction", "experiment": "Coimmunoprecipitation of AMPK with KSR1", "assay_type": "cell-based", "conditions": "AMPK expressed in cells with KSR1; FIG. 22", "text": "as §1, §2"}}}
{"compound": "CC[C@H]1/C=C/C=C/C[C@@H](C)[C@H](O)[C@@](C)(O)C(=O)[C@@H](C)[C@H](O)[C@@H](C)C(=O)[C@@H](C)[C@H](O)[C@@H](C)/C=C/C(=O)O[C@@H]2[C@H](C)[C@H](CC1)O[C@]1(CC[C@H](C)[C@H](C[C@@H](C)O)O1)[C@H]2C", "note": "[oligomycin]", "values": [{"measurement": "Effect on interaction of AMPK with KSR2", "setting": "[1]", "result": "does not alter"}, {"measurement": "Effect on interaction of AMPK with KSR1", "setting": "[2]", "result": "does not alter"}]}
